Legend:
[1] = tested on: Cytoprotection Against Acidified Aspirin; conditions: Robert, Gastroenterology 76:1227 (1979); cited from earlier work
[2] = tested on: Indomethacin-Induced Small Bowel Ulceration; conditions: rat; Kauffman et al. (1979), title; cited from earlier work
[3] = tested on: gastric secretion; conditions: in vivo; cited from earlier work
[4] = tested on: ethanol-induced gastric lesions; assay: Ethanol-induced gastric lesions (80% aqueous ethanol challenge), part A; format: in vivo, rat; conditions: rats; for gastric ulceration: oral 0.3, 1, 3, or 10 mg/kg, 30 min before 1 ml 80% ethanol, examined 1 hr later
Description: A. Four groups of rats, standard laboratory animals for determining cytoprotective effects of pharmacological agents, are fasted for 24 hr and then treated orally with (a) […], (b) cimetidine, (c) a cytoprotective prostaglandin, or (d) vehicle (10% Emulphor, 10% EtOH, 80% water). Thirty min later, the rats are challenged with an oral 1 ml dose of 80% aqueous ethanol, a standard agent for inducing gastric cytodestruction. One hr later, the rats are sacrificed (carbon dioxide asphyxiation) and the gastric tissues examined.

[5] = tested on: gastric acid secretion; assay: Inhibition of pentagastrin-stimulated gastric acid secretion in conscious gastric fistula dogs; format: in vivo; conditions: Canis lupus familiaris, dog, intraduodenal, read-out: Effect % inhibition (peak inhibitory effect on gastric acid secretion)
Description: To determine the gastric acid secretion inhibitory properties, experiments have been performed on conscious dogs provided with gastric fistulas of conventional type and duodenal fistules, the latter ones used for direct introduodenal administration of the test compounds. After 18 hours starvation and deprivation of water the dogs were given subcutaneous infusion of pentagastrin (1-4 nmol/kg, h) lasting for 6-7 hours. Gastric juice was collected in consecutive 30 minutes samples. An aliquot of each sample was titrated with 0.1 N NaOH to […] for titrable acid concentration using an automatic titrator and pH-meter (Radiometer, Copenhagen, Denmark). Acid output was calculated as mmol H^+ /60 minutes. The percent inhibition compared to control experiments was calculated for each compound and the peak inhibitory effect is given in Table 2 below. The test compounds, suspended in 0.5% Methocel® (methyl cellulose), were given intraduodenally in doses from 4-20 μmol/kg when the secretory response to pentagastrin has reached a steady level. In the test prior known compounds were compared with the compounds of the present invention as will be evident from the Table 2 below. The following gastric acid inhibiting effect data were obtained for a number of compounds tested according to the method described.

[6] = tested on: thermally induced gastric ulceration; assay: Thermally induced gastric ulceration (boiling water); format: in vivo, rat; conditions: for ulcer incidence score (ulcers/stomach): rats, control score 8.0
[7] = Gastric volume / gastric emptying experiment, part B; format: in vivo, rat; conditions: rats, oral 0.01, 0.1, or 1.0 mg/kg; 5, 15, and 30 min after ingestion
Description: B. A further experiment is undertaken to rule out gastric emptying as a factor in the cytoprotection observed in part A above. In this experiment timoprazole was given orally at 0.01, 0.1, or 1.0 mg/kg to groups of rats and a further group of rats is treated with vehicle (same as in part A) only. As above, the rats are faster for 24 hr prior to treatment. Groups of rats are then sacrificed 5, 15, and 30 min after timoprazole ingestion. […] Accordingly, flluid accumulation in the stomach is not a factor in the cytoprotection observed in part A.

[8] = tested on: ethanol-induced gastric lesions; assay: Ethanol challenge with or without indomethacin pretreatment, part D; format: in vivo, rat; conditions: timoprazole 5 mg/kg orally, indomethacin 1 hr prior
Description: D. Because mild gastric irritants, e.g., 20% ethanol, are known to stimulate endogenous prostaglandin production, with consequent cytoprotection effects being observed, a further experiment is undertaken to determine whether timoprazole acts as a mild irritant (i.e., by stimulating endogenous cytoprotective prostaglandin production), or exerts a directly cytoprotective effect. In this experiment, rats are treated with timoprazole (5 mg/kg orally), but in each group of rats half the animals are pretreated with a NOSAC, indomethacin, 1 hr prior to treatment with timoprazole. One hr after ethanol challenge, the rats are sacrificed. […] Accordingly, the cytoprotective effects of timoprazole are not mediated by endogenous prostaglandin production.

[9] = tested on: ethanol-induced gastric ulceration; assay: Ethanol-induced gastric ulceration, less irritant vehicle, lowest dose protecting 50% of animals, part C; format: in vivo, rat; conditions: rats
From the text: C. […] The rats are sacrificed one hr after timoprazole administration and the extent of gastric ulceration determined.

[10] = tested on: gastric acid secretion; assay: Gastric acid secretion inhibition in the rat; format: in vivo

CN/C(=N/CCSCc1nc[nH]c1C)NC#N [cimetidine, N-cyano-N'-methyl-N"[2-[[(5-methyl-1H-imidazol-4-yl)methyl]thio]ethyl]gunanidine]
cytoprotective effects [1]: devoid of appreciable cytoprotective effects
inhibition of indomethacin-induced small bowel ulceration [2]: Does Not Inhibit
inhibition of gastric secretion [3]: highly potent inhibitor of gastric secretion
gastric ulceration [4]: all demonstrate gastric ulcers
number of ulcers ([4]; oral 0.3, 1.0, 3.0 or 10.0 mg/kg, 30 min before 80% ethanol): slight decrease in the number of ulcers

COC(=O)c1cc2nc([S+]([O-])Cc3cc(OC)c(C)cn3)[nH]c2cc1C (stereo not shown) [compound 18, 2-[2-(4-methoxy-5-methyl)-pyridylmethylsulfinyl]-(5-carbomethoxy-6-methyl)-benzimidazole]
inhibition in vivo at 0.5 µmol/kg ([5]; dose 0.5 μol/kg): 90%

[O-][S+](Cc1ccccn1)c1nc2ccccc2[nH]1 (stereo not shown) [timoprazole, 2-[2-pyridylmethylsulfinyl]benzimidazole]
ulcer incidence score (ulcers/stomach) ([6]; 0.3 mg/kg): 7.6
ulcer incidence score (ulcers/stomach) ([6]; 1.0 mg/kg): 5.0
ulcer incidence score (ulcers/stomach) ([6]; 3.0 mg/kg): 3.9
ulcer incidence score (ulcers/stomach) ([6]; 10.0 mg/kg): 4.0
incidence and severity of ulcers as compared to vehicle ([6]; rats, 0.3, 1.0, 3.0, and 10.0 mg/kg): uniform reduction in the incidence and severity of ulcers
changes in gastric volume versus vehicle [7]: No significant changes in gastric volume
difference between rats receiving indomethacin and those not receiving it [8]: no significant difference
ED50 ([9]; Rattus norvegicus, read-out: ED50 (lowest dose at which 50% of the animals treated exhibit no gastric ulceration), oral, vehicle 5% EtOH, 1% Emulphor in water): < 1 mg/kg
reduction in ulceration, oral administration ([9]; oral 1, 3, or 10 mg/kg, 30 min before ethanol challenge): significant reduction in ulceration at all dosages tested
reduction of number of ulcers, subcutaneous administration ([9]; subcutaneous 1, 3, or 10 mg/kg, 30 min before ethanol challenge): did not significantly reduce the number of ulcers
gastric ulceration (dose 0.3 mg/kg) ([4]; oral 0.3 mg/kg, 30 min before 80% ethanol): traces of mild ulceration
gastric ulceration [4]: no gastric ulceration
ED50 ([10]; in the rat): ~10 mg/kg
ED50 for gastric acid secretion inhibition relative to lowest cytoprotective dose observed ([10]; rat, ratio to lowest cytoprotective dose of part A): at least ten
inhibition in vivo at 4 µmol/kg [5]: 50%

Cc1cc(C)c2[nH]c([S+]([O-])Cc3ccccn3)nc2c1 (stereo not shown) [x (4-CH3,6-CH3, H, H, H, H), 2-[2-pyridylmethylsulfinyl]-(4,6-dimethyl)benzimidazole]
inhibition in vivo at 4 µmol/kg [5]: 30%

Source: patent US4359465A, “Methods for treating gastrointestinal inflammation” (The Upjohn Company, priority 1980, dated 1982)
